Laboratory results published in PubChem BioAssay AID328 (DTP/NCI, 2004).
Several values for one entry are separate records, joined by “and”; a condition that tells them apart may be missing. Equal entries are not always repeated. Toxic doses and inconclusive results are not listed.

System: BDF1 mice, P388 leukemia ip, median survival T/C
Assay: NCI In Vivo Anticancer Drug Screen. Data for tumor model P388 Leukemia (intraperitoneal) in B6D2F1 (BDF1) mice
Settings: endpoint: median survival time, higher = longer survival
In short: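 Mice carrying the transplantable tumour receive compound or vehicle. Survival is followed in each arm, and the treated measure is divided by the vehicle measure.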

[1] = dose: 25.0 mg/kg/injection, schedule: Q01DX009 (ip), vehicle: saline
[2] = dose: 25.0 mg/kg/injection, schedule: Q04DX003 (ip), vehicle: saline
[3] = dose: 50.0 mg/kg/injection, schedule: Q01DX009 (ip), vehicle: saline
[4] = dose: 50.0 mg/kg/injection, schedule: Q04DX003 (ip), vehicle: saline
[5] = dose: 100.0 mg/kg/injection, schedule: Q01DX009 (ip), vehicle: saline
[6] = dose: 100.0 mg/kg/injection, schedule: Q04DX003 (ip), vehicle: saline
[7] = dose: 200.0 mg/kg/injection, schedule: Q01DX009 (ip), vehicle: saline
[8] = dose: 400.0 mg/kg/injection, schedule: Q04DX003 (ip), vehicle: saline
[9] = dose: 100.0 mg/kg/injection, schedule: Q01DX009 (ip), vehicle: saline with Tween-80
[10] = dose: 200.0 mg/kg/injection, schedule: Q01DX009 (ip), vehicle: Klucel (hydroxypropylcellulose) (HPC)
[11] = dose: 100.0 mg/kg/injection, schedule: Q04DX003 (ip), vehicle: saline with Tween-80
[12] = dose: 400.0 mg/kg/injection, schedule: Q04DX003 (ip), vehicle: saline with Tween-80

CC12CCC3(CC1CCC(OC(=O)c1ccccc1)C2)OCCO3 (stereo not given)
T/C (dose: 22.0 mg/kg/injection, schedule: Q01DX009 (ip), vehicle: other): 109 % of control | T/C (dose: 33.0 mg/kg/injection, schedule: Q01DX009 (ip), vehicle: other): 109 % of control | T/C (dose: 44.0 mg/kg/injection, schedule: Q04DX003 (ip), vehicle: other): 100 % of control | T/C (dose: 50.0 mg/kg/injection, schedule: Q01DX009 (ip), vehicle: other): 109 % of control | T/C (dose: 66.0 mg/kg/injection, schedule: Q04DX003 (ip), vehicle: other): 109 % of control | T/C (dose: 75.0 mg/kg/injection, schedule: Q01DX009 (ip), vehicle: other): 109 % of control | T/C (dose: 100.0 mg/kg/injection, schedule: Q04DX003 (ip), vehicle: other): 100 % of control | T/C (dose: 150.0 mg/kg/injection, schedule: Q04DX003 (ip), vehicle: other): 100 % of control | T/C (dose: 200.0 mg/kg/injection, schedule: Q01DX009 (ip), vehicle: other): 109 % of control | T/C (dose: 200.0 mg/kg/injection, schedule: Q04DX003 (ip), vehicle: other): 109 % of control | T/C (dose: 400.0 mg/kg/injection, schedule: Q01DX009 (ip), vehicle: other): 104 % of control | T/C (dose: 400.0 mg/kg/injection, schedule: Q04DX003 (ip), vehicle: other): 109 % of control

O=[N+]([O-])c1ccc(N2CCCCC2)c([N+](=O)[O-])c1
T/C (dose: 12.5 mg/kg/injection, schedule: Q01DX009 (ip), vehicle: saline): 110 % of control | T/C [1]: 109 % of control | T/C [2]: 121 % of control | T/C [3]: 116 % of control | T/C [4]: 114 % of control | T/C [5]: 100 % of control | T/C [6]: 112 % of control | T/C [7]: 110 % of control | T/C (dose: 200.0 mg/kg/injection, schedule: Q04DX003 (ip), vehicle: saline): 123 % of control | T/C (dose: 400.0 mg/kg/injection, schedule: Q01DX009 (ip), vehicle: saline): 110 % of control | T/C [8]: 102 % of control

CCOC(=O)Sc1ncnc2nc[nH]c12
T/C [9]: 109 % of control | T/C (dose: 200.0 mg/kg/injection, schedule: Q01DX009 (ip), vehicle: saline with Tween-80): 90 % of control

COc1cccc(/C=C2\SC(=S)N(CCCN3CCOCC3)C2=O)c1OC
T/C (dose: 50.0 mg/kg/injection, schedule: Q01DX009 (ip), vehicle: saline with Tween-80): 91 % of control | T/C [9]: 88 % of control

C=C1C(=O)CCC1/C=C\C (stereo not given)
T/C (dose: 50.0 mg/kg/injection, schedule: Q01DX005 (ip), vehicle: saline with Tween-80): 97 % of control

CC1(CBr)Oc2ccccc2O1
T/C (dose: 100.0 mg/kg/injection, schedule: Q01DX009 (ip), vehicle: Klucel (hydroxypropylcellulose) (HPC)): 104 % of control | T/C (dose: 100.0 mg/kg/injection, schedule: Q04DX003 (ip), vehicle: Klucel (hydroxypropylcellulose) (HPC)): 100 % of control | T/C [10]: 108 % of control | T/C (dose: 200.0 mg/kg/injection, schedule: Q04DX003 (ip), vehicle: Klucel (hydroxypropylcellulose) (HPC)): 95 % of control | T/C (dose: 400.0 mg/kg/injection, schedule: Q01DX009 (ip), vehicle: Klucel (hydroxypropylcellulose) (HPC)): 116 % of control | T/C (dose: 400.0 mg/kg/injection, schedule: Q04DX003 (ip), vehicle: Klucel (hydroxypropylcellulose) (HPC)): 108 % of control

O=C(O)CSC(CC(=O)O)C(F)(F)C(F)(F)C(F)(F)F (stereo not given)
T/C [1]: 90 % of control | T/C [2]: 109 % of control | T/C [3]: 100 % of control | T/C [4]: 109 % of control | T/C (dose: 75.0 mg/kg/injection, schedule: Q01DX009 (ip), vehicle: saline): 110 % of control | T/C [5]: 95 % of control and 115 % of control | T/C [6]: 109 % of control | T/C (dose: 150.0 mg/kg/injection, schedule: Q01DX009 (ip), vehicle: saline): 120 % of control | T/C [7]: 120 % of control | T/C (dose: 300.0 mg/kg/injection, schedule: Q01DX009 (ip), vehicle: saline): 110 % of control | T/C [8]: 122 % of control

CC(=O)OCC(=O)[C@@]12OC(C)(C)O[C@@H]1C[C@H]1[C@@H]3CC(C=O)=C4C=C(OCCCl)CC[C@]4(C)[C@@]3(F)[C@@H](O)C[C@@]12C
T/C (dose: 0.39 mg/kg/injection, schedule: Q01DX009 (ip), vehicle: Klucel (hydroxypropylcellulose) (HPC)): 95 % of control | T/C (dose: 0.78 mg/kg/injection, schedule: Q01DX009 (ip), vehicle: Klucel (hydroxypropylcellulose) (HPC)): 107 % of control and 113 % of control | T/C (dose: 1.56 mg/kg/injection, schedule: Q01DX009 (ip), vehicle: Klucel (hydroxypropylcellulose) (HPC)): 106 % of control and 113 % of control | T/C (dose: 2.3 mg/kg/injection, schedule: Q04DX003 (ip), vehicle: Klucel (hydroxypropylcellulose) (HPC)): 104 % of control | T/C (dose: 3.12 mg/kg/injection, schedule: Q01DX009 (ip), vehicle: Klucel (hydroxypropylcellulose) (HPC)): 100 % of control | T/C (dose: 3.13 mg/kg/injection, schedule: Q01DX009 (ip), vehicle: Klucel (hydroxypropylcellulose) (HPC)): 105 % of control | T/C (dose: 4.6 mg/kg/injection, schedule: Q04DX003 (ip), vehicle: Klucel (hydroxypropylcellulose) (HPC)): 109 % of control | T/C (dose: 6.25 mg/kg/injection, schedule: Q01DX009 (ip), vehicle: Klucel (hydroxypropylcellulose) (HPC)): 122 % of control | T/C (dose: 9.3 mg/kg/injection, schedule: Q04DX003 (ip), vehicle: Klucel (hydroxypropylcellulose) (HPC)): 100 % of control | T/C (dose: 12.5 mg/kg/injection, schedule: Q01DX009 (ip), vehicle: Klucel (hydroxypropylcellulose) (HPC)): 124 % of control | T/C (dose: 13.0 mg/kg/injection, schedule: Q04DX003 (ip), vehicle: Klucel (hydroxypropylcellulose) (HPC)): 115 % of control | T/C (dose: 25.0 mg/kg/injection, schedule: Q04DX003 (ip), vehicle: saline with Tween-80): 115 % of control | T/C (dose: 30.0 mg/kg/injection, schedule: Q04DX003 (ip), vehicle: Klucel (hydroxypropylcellulose) (HPC)): 115 % of control | T/C (dose: 45.0 mg/kg/injection, schedule: Q04DX003 (ip), vehicle: Klucel (hydroxypropylcellulose) (HPC)): 104 % of control | T/C (dose: 50.0 mg/kg/injection, schedule: Q04DX003 (ip), vehicle: saline with Tween-80): 114 % of control | T/C (dose: 70.0 mg/kg/injection, schedule: Q04DX003 (ip), vehicle: Klucel (hydroxypropylcellulose) (HPC)): 108 % of control | T/C [11]: 124 % of control | T/C (dose: 105.0 mg/kg/injection, schedule: Q04DX003 (ip), vehicle: Klucel (hydroxypropylcellulose) (HPC)): 113 % of control | T/C (dose: 200.0 mg/kg/injection, schedule: Q04DX003 (ip), vehicle: saline with Tween-80): 118 % of control | T/C [12]: 100 % of control

CN(CCOS(C)(=O)=O)CCOS(C)(=O)=O
T/C (dose: 0.01 mg/kg/injection, schedule: Q01DX009 (ip), vehicle: saline): 172 % of control | T/C (dose: 0.02 mg/kg/injection, schedule: Q01DX009 (ip), vehicle: saline): 213 % of control | T/C (dose: 0.07 mg/kg/injection, schedule: Q04DX003 (ip), vehicle: saline): 122 % of control | T/C (dose: 0.11 mg/kg/injection, schedule: Q04DX003 (ip), vehicle: saline): 154 % of control | T/C (dose: 0.36 mg/kg/injection, schedule: Q01DX009 (ip), vehicle: saline): 104 % of control and 218 % of control | T/C (dose: 0.56 mg/kg/injection, schedule: Q01DX009 (ip), vehicle: saline): 231 % of control and 260 % of control and 90 % of control | T/C (dose: 0.75 mg/kg/injection, schedule: Q04DX003 (ip), vehicle: saline): 213 % of control | T/C (dose: 0.84 mg/kg/injection, schedule: Q01DX009 (ip), vehicle: saline): 231 % of control | T/C (dose: 0.99 mg/kg/injection, schedule: Q04DX003 (ip), vehicle: saline): 225 % of control | T/C (dose: 1.5 mg/kg/injection, schedule: Q04DX003 (ip), vehicle: saline): 240 % of control and 250 % of control | T/C (dose: 2.25 mg/kg/injection, schedule: Q04DX003 (ip), vehicle: saline): 150 % of control | T/C (dose: 2.3 micrograms/kg/injection, schedule: Q01DX009 (ip), vehicle: saline): 87 % of control | T/C (dose: 19.0 micrograms/kg/injection, schedule: Q01DX009 (ip), vehicle: saline): 160 % of control | T/C (dose: 44.0 micrograms/kg/injection, schedule: Q01DX009 (ip), vehicle: saline): 158 % of control | T/C (dose: 66.0 micrograms/kg/injection, schedule: Q01DX009 (ip), vehicle: saline): 220 % of control

Nc1nc(C=O)c(-c2cccc3ccccc23)c(=O)[nH]1
T/C [11]: 113 % of control | T/C [12]: 150 % of control

C[C@]12C=CC(=O)C=C1CC[C@H]1[C@@H]3C[C@@H](O)[C@](O)(C(=O)CO)[C@@]3(C)C[C@H](O)[C@@]12F
T/C (dose: 50.0 mg/kg/injection, schedule: Q01DX009 (ip), vehicle: Klucel (hydroxypropylcellulose) (HPC)): 100 % of control | T/C (dose: 132.0 mg/kg/injection, schedule: Q01DX009 (ip), vehicle: Klucel (hydroxypropylcellulose) (HPC)): 118 % of control | T/C [10]: 113 % of control
